The values that follow come from publication PMC3876027 (Journal of medicinal chemistry, 2013).

One series has as its system human M1-M4. Description: human mAChR selectivity, functional assay at hM1-M4. In kind it is cell-based. The conditions noted are these: for IC50: read-out: hM1-M4 IC50, each of M1, M2, M3, M4.
The target in another series is T1, human M5 (Homo sapiens, UniProt P08912).
T1 sequence (P08912 1-532): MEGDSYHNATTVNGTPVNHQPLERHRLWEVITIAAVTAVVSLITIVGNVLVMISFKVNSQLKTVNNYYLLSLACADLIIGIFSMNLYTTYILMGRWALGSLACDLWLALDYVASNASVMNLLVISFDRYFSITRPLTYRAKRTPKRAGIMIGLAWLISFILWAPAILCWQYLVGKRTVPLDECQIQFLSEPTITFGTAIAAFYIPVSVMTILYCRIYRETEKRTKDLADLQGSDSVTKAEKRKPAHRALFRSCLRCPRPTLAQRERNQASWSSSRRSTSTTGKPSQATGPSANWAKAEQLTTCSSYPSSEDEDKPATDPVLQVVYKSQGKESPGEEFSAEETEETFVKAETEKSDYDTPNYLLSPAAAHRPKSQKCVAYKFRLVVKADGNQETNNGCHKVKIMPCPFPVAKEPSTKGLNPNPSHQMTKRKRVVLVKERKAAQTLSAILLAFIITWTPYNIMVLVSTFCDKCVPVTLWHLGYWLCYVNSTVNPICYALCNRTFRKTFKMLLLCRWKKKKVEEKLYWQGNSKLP
Briefly: functional calcium mobilization assay in CHO cells stably expressing human M5. In kind it is cell-based. (In general: Calcium assays in cells follow changes in intracellular calcium, usually with a dye or a luminescent sensor.)

The next series addresses T2, human M1 (Homo sapiens, UniProt P11229).
T2 sequence (P11229 1-460): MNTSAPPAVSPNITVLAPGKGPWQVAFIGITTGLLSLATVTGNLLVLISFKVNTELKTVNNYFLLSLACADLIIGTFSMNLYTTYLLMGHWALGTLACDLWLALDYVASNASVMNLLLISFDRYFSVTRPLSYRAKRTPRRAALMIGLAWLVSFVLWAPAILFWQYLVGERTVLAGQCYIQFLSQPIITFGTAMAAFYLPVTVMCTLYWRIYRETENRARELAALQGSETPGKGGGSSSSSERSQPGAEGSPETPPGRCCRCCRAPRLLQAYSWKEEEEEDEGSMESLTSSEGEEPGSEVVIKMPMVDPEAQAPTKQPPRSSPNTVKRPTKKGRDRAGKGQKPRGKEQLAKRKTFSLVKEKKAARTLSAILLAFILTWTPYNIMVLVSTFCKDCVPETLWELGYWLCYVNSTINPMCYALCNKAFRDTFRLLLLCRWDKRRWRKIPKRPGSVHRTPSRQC
Briefly: HTS counter-screen in CHO cells expressing human M1. In kind it is cell-based. The conditions noted are these: confirmed HTS hit sample. For orientation: A counterscreen serves to expose hits that act by an unwanted route or on another target.

A further series has as its target T3, human M4 (Homo sapiens, UniProt P08173).
T3 sequence (P08173 1-479): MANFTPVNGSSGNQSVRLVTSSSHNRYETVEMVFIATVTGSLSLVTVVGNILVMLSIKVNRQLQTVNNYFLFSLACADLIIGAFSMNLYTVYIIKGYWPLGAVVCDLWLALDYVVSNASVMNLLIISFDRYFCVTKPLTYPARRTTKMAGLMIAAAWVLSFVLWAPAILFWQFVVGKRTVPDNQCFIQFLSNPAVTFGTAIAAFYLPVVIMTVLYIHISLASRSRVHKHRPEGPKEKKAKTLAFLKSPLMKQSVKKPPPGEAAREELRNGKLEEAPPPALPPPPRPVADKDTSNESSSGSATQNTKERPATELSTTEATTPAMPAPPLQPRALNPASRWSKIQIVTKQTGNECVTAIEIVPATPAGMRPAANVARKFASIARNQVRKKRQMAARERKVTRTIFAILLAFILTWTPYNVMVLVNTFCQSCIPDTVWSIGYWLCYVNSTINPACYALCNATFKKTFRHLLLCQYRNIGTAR
Description: HTS counter-screen in CHO cells expressing human M4. In kind it is cell-based. The note with it: confirmed HTS hit sample.

In a further series the test system is rat M1-M4. Briefly: rat mAChR selectivity, functional assay at rM1-M4. In kind it is cell-based.
The target in series [1] is T4, hM5 (Homo sapiens, UniProt P08912).
T4 sequence (P08912 1-532): T1 sequence (P08912 1-532)
Briefly: [3H]-NMS competition binding in membranes prepared from hM5 cells. The conditions noted are these: N=3; compared to atropine.

The target of series [2] is T4, hM5. Briefly: [3H]-NMS dissociation kinetics with hM5 cell membranes. In kind it is binding.
The nature of series [3]: hepatic microsomal intrinsic clearance, rat. In kind it is in vitro ADME. The conditions noted are these: Sprague-Dawley, liver microsomes. (In general: Liver microsomes are a subcellular fraction often used to study metabolism.)
Series [4] in a line: hepatic microsomal intrinsic clearance, cynomolgus monkey. In kind it is in vitro ADME.
The nature of series [5]: hepatic microsomal intrinsic clearance, human. In kind it is in vitro ADME. The conditions noted are these: liver microsomes.
Series [6] in a line: IV pharmacokinetics in male cynomolgus monkey. In kind it is in vivo. The note with it: plasma, 1 mg/kg.
A short description of series [7]: Eurofins radioligand binding panel. The note with it: panel of 68 targets.
In a further series the target is CB1 (Homo sapiens, UniProt P21554). Briefly: subsequent functional assay at CB1.

Entries after “also recorded” stand apart in the source; their conditions may differ.

Chain of CB1 (P21554 whole entry, species assumed): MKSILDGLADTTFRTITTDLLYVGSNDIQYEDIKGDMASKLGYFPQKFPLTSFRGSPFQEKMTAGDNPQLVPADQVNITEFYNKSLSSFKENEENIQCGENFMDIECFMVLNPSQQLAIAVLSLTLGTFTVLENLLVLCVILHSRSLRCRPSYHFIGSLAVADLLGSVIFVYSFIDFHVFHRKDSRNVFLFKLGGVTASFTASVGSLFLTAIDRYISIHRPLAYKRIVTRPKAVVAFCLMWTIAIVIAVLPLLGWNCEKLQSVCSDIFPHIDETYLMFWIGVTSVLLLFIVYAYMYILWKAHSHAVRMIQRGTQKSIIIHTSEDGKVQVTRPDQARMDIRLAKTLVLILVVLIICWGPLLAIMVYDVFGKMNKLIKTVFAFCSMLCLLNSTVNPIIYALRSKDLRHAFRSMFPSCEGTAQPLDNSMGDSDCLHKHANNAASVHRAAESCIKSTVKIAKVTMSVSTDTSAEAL

The term IC50 denotes the concentration that inhibits the measured activity by half. Take `O=C(c1ccc(F)c(F)c1)N1CCN2C(=O)c3ccccc3C12c1ccccc1` (centres unmarked) [4g]: the IC50 with human M1-M4 is greater than 30 µM.

Turning to `O=C(c1ccc(F)c(F)c1)N1CCN2C(=O)c3ccccc3C12c1ccc(Cl)cc1` (centres unmarked) [5g], the IC50 in the series on human M1-M4 was greater than 30 µM.

In the case of `O=C(c1ccc(F)cc1)N1CCN2C(=O)c3ccccc3C12c1ccccc1` (centres unmarked) [compound 1], the IC50 on human M5 was greater than 10 µM; with human M1-M4, greater than 30 µM. In addition, at human M1, the “activity on M1” value is “inactive”. The “activity on M4” value at human M4 is “inactive”.

Broadly, the CLint scaled is a measure of how fast metabolising enzymes remove a compound, apart from limits set by blood flow. One may read the clearance as a measure of how efficiently the substance is removed, as volume per time. Turning to `O=C(c1ccc(F)c(F)c1)N1CCN2C(=O)c3ccccc3[C@@]12c1ccc(Cl)cc1` [compound 8, (S)-9b-(4-chlorophenyl)-1-(3,4-difluorobenzoyl)-2,3-dihydro-1H-imidazo[2,1-a]isoindol-5(9bH)-one], the “activity at human M1-M4” value with human M1-M4 was “inactive”. In addition, the IC50 in the series on human M1-M4 was greater than 30 µM; with rat M1-M4 (read-out: rM1-M4 IC50, each of rat M1, M2, M3, M4) it was greater than 30 µM. Besides, the “activity at rat M1-M4” value in the series with rat M1-M4 was “inactive”. In addition, the “competition with [3H]-NMS for binding to hM5” value on hM5 [1] is reported as “no competition; also recorded: does not bind at the M5 orthosteric site”. Further, at hM5 [2] (atropine (+8), N=3), the “[3H]-NMS dissociation t1/2” value stood at 1.15 h. In addition, the “effect on the dissociation rate of [3H]-NMS” value at hM5 [2] (hM5 cell membranes) was “decreased the dissociation rate”. Further, the CLint scaled at 1 µM in [3] was determined as 24 mL/min/kg; in [5] it was 2.6 mL/min/kg. Besides, the “Predicted CLhep” value in series [4] (from CLint in well-stirred model, uncorrected for fraction unbound in plasma) is given as 14 mL/min/kg. Further, the CLint scaled in [4] (liver microsomes) is 20 mL/min/kg. The compound also returned a clearance in [6] of 3 mL/min/kg. Moreover, the “number of targets with significant binding (>50% inhibition @10 μM)” value in series [7] is 1. For the same compound, the “functional activity at CB1” value at CB1 is “no functional activity”.
